Assay results as given in patent US20250109140A1, “5-[5-(PIPERIDIN-4-YL)THIENO[3,2-C]PYRAZOL-2-YL]INDAZOLE DERIVATIVES AND RELATED COMPOUNDS AS MODULATORS FOR SPLICING NUCLEIC ACIDS AND FOR THE TREATMENT OF PROLIFERATIVE DISEASES” (REMIX THERAPUTICS INC., priority 2022, published 2025).
Read-outs that look alike come from different tables or passages of the source.

Legend:
HiBiT-tagged MYB protein = assay: HiBiT protein abundance assay, MYB (K562 HiBiT knock-in cells); format: cell-based, human; conditions: 24 hours treatment
Outline: (§1)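 Luminescence from the Nano-Glo HiBiT lytic reagent measured tagged protein remaining in knock-in K562 cells after 24 h compound exposure (top dose 10 µM final, 3-fold, 10 points). Responses normalized between parental K562 and DMSO-treated lines were fit by four-parameter logistic to interpolate the 50% concentration.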

MYB mRNA = assay: Splicing RT-qPCR assay, MYB canonical (CJ) and alternative (AJ) junction mRNA; format: cell-based; conditions: Homo sapiens; for EC50: AC50 = 50% response in AJ mRNA increase
Outline: (§2)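 A673/K562; 11-pt 3-fold dil., top 10 uM final, ≤0.25% DMSO; 24 h, 37 °C, 5% CO2. Lysis, then RT-qPCR of CJ/AJ isoforms, ≥duplicate. ΔCt vs housekeeper (GAPDH/GUSB/PPIA), ΔΔCt vs DMSO, RQ = 2^(−ΔΔCt), expressed as % response.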

Target C = assay: HiBiT protein abundance assay, Target C (K562 HiBiT knock-in cells); format: cell-based, human; conditions: 24 hours treatment
Outline: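 The readout was Nano-Glo HiBiT lytic luminescence after 24 h compound exposure at 37 °C, in 10000 K562 knock-in cells/well. Compounds ran as 10-point, 3-fold series, top final […], ≤0.25% DMSO. Responses were scaled between parental K562 and DMSO-treated controls, and IC50 was interpolated at 50% from four-parameter logistic curves.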

HiBiT-tagged HTT protein = assay: HiBiT protein abundance assay, HTT (K562 HiBiT knock-in cells); format: cell-based, human; conditions: 24 hours treatment
Outline: as §1

Target C mRNA = assay: Splicing RT-qPCR gene panel, Target C canonical junction (CJ) mRNA; format: cell-based; conditions: Homo sapiens; Table 8; larger gene panel, decrease in CJ mRNA levels
Outline: as §2

HTT mRNA = assay: Splicing RT-qPCR assay, HTT canonical (CJ) and alternative (AJ) junction mRNA; format: cell-based; conditions: Homo sapiens; for EC50: AC50 = 50% response in AJ mRNA increase
Outline: as §2

SMN2 mRNA = assay: Splicing RT-qPCR gene panel, SMN2 canonical junction (CJ) mRNA; format: cell-based; conditions: Homo sapiens; Table 8; larger gene panel, decrease in CJ mRNA levels
Outline: as §2

[1] = system: K562 (human chronic myelogenous leukemia) cells; assay: Cell viability, Cell Titer Glo 2.0 assay, K562 cells; format: cell-based; conditions: 72 hours
Outline: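 Luminescent Cell Titer Glo 2.0 readout after 72 h exposure (37° C, 5% CO2), medium-only wells as blank. Cells plated 500/well in IMDM with 10% FBS; test compounds diluted from DMSO series 1:100 into medium, 0.1% DMSO final.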

[2] = Table 7, RT-qPCR, A673 or K562 cells, 24 hours treatment
[3] = Table 7, IC50 = 50% response in CJ mRNA decrease, RT-qPCR, A673 or K562 cells, 24 hours treatment, read-out: MYB CJ
[4] = Table 8, larger gene panel, decrease in CJ mRNA levels, read-out: MYB CJ IC50
[5] = Table 7, IC50 = 50% response in CJ mRNA decrease, RT-qPCR, A673 or K562 cells, 24 hours treatment, read-out: HTT CJ
[6] = Table 8, larger gene panel, decrease in CJ mRNA levels, read-out: HTT CJ IC50

SMILES	IC50 (HiBiT-tagged MYB protein)	EC50 (MYB mRNA; [2])	IC50 (MYB mRNA; [3])	IC50 (MYB mRNA; [4])	IC50 (Target C)	IC50 (HiBiT-tagged HTT protein)	IC50 (Target C mRNA)	EC50 (HTT mRNA; [2])	IC50 (HTT mRNA; [5])	IC50 (HTT mRNA; [6])	IC50 (SMN2 mRNA)	IC50 [1]
Cc1cn2cc(-n3cc4sc(C5CCNCC5)cc4n3)ncc2n1 [Compound 169]	1000 to 10000 nM	1000 to 10000 nM	1000 to 10000 nM	1000 to 10000 nM	1000 to 10000 nM	1000 to 10000 nM	1000 to 10000 nM	1000 to 10000 nM	1000 to 10000 nM	1000 to 10000 nM	1000 to 10000 nM	1000 to 10000 nM
Cc1cn2nc(-n3cc4sc(C5CCNCC5)cc4n3)nc2c(C)n1 [Compound 170]	1000 to 10000 nM	1000 to 10000 nM	1000 to 10000 nM	1000 to 10000 nM	1000 to 10000 nM	1000 to 10000 nM	1000 to 10000 nM	1000 to 10000 nM	1000 to 10000 nM	1000 to 10000 nM	1000 to 10000 nM	1000 to 10000 nM
Cc1cn2nc(-n3cc4sc(C5CCNCC5)cc4n3)cc2c(C)n1 [Compound 171]	100 to 1000 nM	1000 to 10000 nM	1000 to 10000 nM	1000 to 10000 nM	100 to 1000 nM	100 to 1000 nM	1000 to 10000 nM	100 to 1000 nM	100 to 1000 nM	100 to 1000 nM	100 to 1000 nM	1000 to 10000 nM
Cc1cn2cc(-n3cc4sc(C5CCNCC5)cc4n3)cc(Cl)c2n1 [Compound 172]	1000 to 10000 nM	100 to 1000 nM	1000 to 10000 nM	100 to 1000 nM	100 to 1000 nM	100 to 1000 nM	1000 to 10000 nM	100 to 1000 nM	100 to 1000 nM	100 to 1000 nM	100 to 1000 nM	1000 to 10000 nM
Cn1cc2c(F)cc(-n3cc4cc(C5CCNCC5)sc4n3)cc2n1 [Compound 174]	1000 to 10000 nM	> 10000 nM	> 10000 nM	> 10000 nM	> 10000 nM	1000 to 10000 nM	> 10000 nM	> 10000 nM	> 10000 nM	> 10000 nM	1000 to 10000 nM	1000 to 10000 nM
Cn1cc2c(F)cc(-n3cc4sc(C5CCNCC5)cc4n3)cc2n1 [Compound 175]	1000 to 10000 nM	> 10000 nM	> 10000 nM	> 10000 nM	1000 to 10000 nM	1000 to 10000 nM	> 10000 nM	> 10000 nM	> 10000 nM	> 10000 nM	> 10000 nM	1000 to 10000 nM
c1n[nH]cc1-n1cc2sc(C3CCNCC3)cc2n1 [Compound 176]	> 10000 nM	> 10000 nM	> 10000 nM	> 10000 nM	> 10000 nM	> 10000 nM	> 10000 nM	> 10000 nM	> 10000 nM	> 10000 nM	> 10000 nM	> 10000 nM
Cn1cc2cc(-c3cc4cn(C5=CCOCC5)nc4s3)cc(F)c2n1 [Compound 177]	> 10000 nM	> 10000 nM	> 10000 nM	> 10000 nM	> 10000 nM	> 10000 nM	> 10000 nM	> 10000 nM	> 10000 nM	> 10000 nM	> 10000 nM	> 10000 nM
Cn1cc2cc(-n3cc4sc(C5CCNCC5)cc4n3)c(O)cc2n1 [Compound 178]	1000 to 10000 nM	1000 to 10000 nM	1000 to 10000 nM	1000 to 10000 nM	1000 to 10000 nM	1000 to 10000 nM	1000 to 10000 nM	1000 to 10000 nM	1000 to 10000 nM	1000 to 10000 nM	1000 to 10000 nM	1000 to 10000 nM
Cc1cn2cc(-n3cc4sc(C5CCNCC5)cc4n3)nc2c(C)n1 [Compound 181]	1000 to 10000 nM	> 10000 nM	> 10000 nM	> 10000 nM	> 10000 nM	1000 to 10000 nM	> 10000 nM	1000 to 10000 nM	1000 to 10000 nM	1000 to 10000 nM	1000 to 10000 nM	1000 to 10000 nM
Cn1cc2cc(-c3cc4cn([C@H]5CCNC[C@H]5F)nc4s3)cc(F)c2n1 [Compound 182]	100 to 1000 nM	1000 to 10000 nM	100 to 1000 nM	1000 to 10000 nM	100 to 1000 nM	< 100 nM	100 to 1000 nM	100 to 1000 nM	< 100 nM	100 to 1000 nM	< 100 nM	100 to 1000 nM
Cn1cc2cc(-c3cc4cn([C@@H]5CCNC[C@@H]5F)nc4s3)cc(F)c2n1 [Compound 183]	100 to 1000 nM	1000 to 10000 nM	1000 to 10000 nM	1000 to 10000 nM	< 100 nM	< 100 nM	1000 to 10000 nM	1000 to 10000 nM	100 to 1000 nM	1000 to 10000 nM	100 to 1000 nM	100 to 1000 nM
Cn1cc2cc(-c3cc4cn(C5CNC5)nc4s3)cc(F)c2n1 [Compound 184]	1000 to 10000 nM	1000 to 10000 nM	1000 to 10000 nM	1000 to 10000 nM	> 10000 nM	1000 to 10000 nM	> 10000 nM	1000 to 10000 nM	1000 to 10000 nM	1000 to 10000 nM	100 to 1000 nM	1000 to 10000 nM
